{"source": "patent US20170087174A1", "about": "“COMBINATION THERAPY REGIMEN FOR TREATMENT OF HCV” (JANSSEN PHARMACEUTICALS, INC., priority 2015, published 2017)", "key": {"CYP2C8": {"target": "T1, CYP2C8 (Homo sapiens, UniProt P10632)", "T1 sequence (P10632 1-490)": "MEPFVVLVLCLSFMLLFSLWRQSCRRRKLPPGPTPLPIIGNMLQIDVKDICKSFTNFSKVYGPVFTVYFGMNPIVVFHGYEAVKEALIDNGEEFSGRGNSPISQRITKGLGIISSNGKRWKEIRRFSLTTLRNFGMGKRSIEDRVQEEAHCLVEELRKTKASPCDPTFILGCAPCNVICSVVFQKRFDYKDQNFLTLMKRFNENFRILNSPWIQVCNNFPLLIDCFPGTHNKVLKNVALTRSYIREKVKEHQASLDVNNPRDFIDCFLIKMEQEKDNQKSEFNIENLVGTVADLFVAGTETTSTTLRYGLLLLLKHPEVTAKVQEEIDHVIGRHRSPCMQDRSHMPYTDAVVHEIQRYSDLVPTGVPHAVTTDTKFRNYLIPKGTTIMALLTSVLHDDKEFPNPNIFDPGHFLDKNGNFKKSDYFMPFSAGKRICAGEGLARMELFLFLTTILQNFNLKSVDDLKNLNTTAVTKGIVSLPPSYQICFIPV", "experiment": "CYP2C8 inhibition", "format": "in vitro ADME", "details": "up to 10 μM"}, "BCRP": {"target": "T2, BCRP (Homo sapiens, UniProt Q9UNQ0)", "T2 sequence (Q9UNQ0 1-655)": "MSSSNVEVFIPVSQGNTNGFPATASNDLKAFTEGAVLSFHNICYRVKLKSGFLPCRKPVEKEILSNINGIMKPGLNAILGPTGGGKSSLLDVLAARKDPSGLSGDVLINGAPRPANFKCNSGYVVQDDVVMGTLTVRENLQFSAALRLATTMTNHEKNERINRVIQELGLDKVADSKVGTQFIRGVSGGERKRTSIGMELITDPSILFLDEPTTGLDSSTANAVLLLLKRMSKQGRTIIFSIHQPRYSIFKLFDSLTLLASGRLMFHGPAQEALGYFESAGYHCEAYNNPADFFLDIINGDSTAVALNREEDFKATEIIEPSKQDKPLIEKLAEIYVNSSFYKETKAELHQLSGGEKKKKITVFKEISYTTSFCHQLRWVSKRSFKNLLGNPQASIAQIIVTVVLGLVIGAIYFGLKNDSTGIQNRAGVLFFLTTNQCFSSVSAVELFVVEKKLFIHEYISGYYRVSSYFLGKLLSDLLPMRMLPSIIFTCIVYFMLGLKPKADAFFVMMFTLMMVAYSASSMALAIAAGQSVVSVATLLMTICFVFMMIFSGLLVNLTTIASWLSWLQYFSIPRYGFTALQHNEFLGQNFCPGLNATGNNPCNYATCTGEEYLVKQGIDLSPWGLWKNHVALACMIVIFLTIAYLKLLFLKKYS", "details": "in vitro; cited from earlier work"}, "BSEP": {"target": "BSEP (Homo sapiens, UniProt O95342)", "sequence (O95342 whole entry)": "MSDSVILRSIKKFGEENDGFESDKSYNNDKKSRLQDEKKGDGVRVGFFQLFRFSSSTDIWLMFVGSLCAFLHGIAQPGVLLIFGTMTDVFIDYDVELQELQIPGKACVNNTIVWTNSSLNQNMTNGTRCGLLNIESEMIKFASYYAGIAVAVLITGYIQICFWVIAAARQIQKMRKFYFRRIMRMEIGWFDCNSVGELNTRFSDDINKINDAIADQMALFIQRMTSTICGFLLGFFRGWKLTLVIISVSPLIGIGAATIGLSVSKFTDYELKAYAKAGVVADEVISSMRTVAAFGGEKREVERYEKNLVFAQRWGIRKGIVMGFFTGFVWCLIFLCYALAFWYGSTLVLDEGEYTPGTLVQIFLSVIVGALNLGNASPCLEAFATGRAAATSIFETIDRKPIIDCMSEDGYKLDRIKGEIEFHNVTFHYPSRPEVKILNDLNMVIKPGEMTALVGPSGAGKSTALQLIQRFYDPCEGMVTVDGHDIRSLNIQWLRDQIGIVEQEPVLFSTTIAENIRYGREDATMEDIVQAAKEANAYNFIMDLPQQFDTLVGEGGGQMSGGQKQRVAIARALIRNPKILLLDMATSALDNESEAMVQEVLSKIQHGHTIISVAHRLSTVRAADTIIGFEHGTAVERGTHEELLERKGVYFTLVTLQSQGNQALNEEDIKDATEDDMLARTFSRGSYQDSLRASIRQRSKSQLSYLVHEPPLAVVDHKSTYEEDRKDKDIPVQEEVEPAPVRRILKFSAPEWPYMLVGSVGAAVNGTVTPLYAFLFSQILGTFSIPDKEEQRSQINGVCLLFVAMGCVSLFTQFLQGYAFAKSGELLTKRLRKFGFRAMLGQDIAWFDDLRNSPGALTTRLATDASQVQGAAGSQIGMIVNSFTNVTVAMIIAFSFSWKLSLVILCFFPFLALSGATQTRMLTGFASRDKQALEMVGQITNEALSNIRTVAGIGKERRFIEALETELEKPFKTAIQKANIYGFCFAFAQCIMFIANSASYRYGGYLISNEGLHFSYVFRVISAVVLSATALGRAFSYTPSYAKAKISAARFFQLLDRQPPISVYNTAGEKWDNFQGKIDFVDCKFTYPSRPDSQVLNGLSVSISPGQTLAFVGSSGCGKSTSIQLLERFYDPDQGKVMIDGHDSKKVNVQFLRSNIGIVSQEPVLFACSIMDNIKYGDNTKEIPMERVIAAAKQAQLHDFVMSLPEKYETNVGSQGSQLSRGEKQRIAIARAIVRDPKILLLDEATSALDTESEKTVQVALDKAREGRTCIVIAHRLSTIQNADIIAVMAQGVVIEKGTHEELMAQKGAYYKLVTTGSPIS", "details": "in vitro, cited from earlier work"}, "MRP2": {"target": "MRP2 (Homo sapiens, UniProt Q92887)", "sequence (Q92887 whole entry)": "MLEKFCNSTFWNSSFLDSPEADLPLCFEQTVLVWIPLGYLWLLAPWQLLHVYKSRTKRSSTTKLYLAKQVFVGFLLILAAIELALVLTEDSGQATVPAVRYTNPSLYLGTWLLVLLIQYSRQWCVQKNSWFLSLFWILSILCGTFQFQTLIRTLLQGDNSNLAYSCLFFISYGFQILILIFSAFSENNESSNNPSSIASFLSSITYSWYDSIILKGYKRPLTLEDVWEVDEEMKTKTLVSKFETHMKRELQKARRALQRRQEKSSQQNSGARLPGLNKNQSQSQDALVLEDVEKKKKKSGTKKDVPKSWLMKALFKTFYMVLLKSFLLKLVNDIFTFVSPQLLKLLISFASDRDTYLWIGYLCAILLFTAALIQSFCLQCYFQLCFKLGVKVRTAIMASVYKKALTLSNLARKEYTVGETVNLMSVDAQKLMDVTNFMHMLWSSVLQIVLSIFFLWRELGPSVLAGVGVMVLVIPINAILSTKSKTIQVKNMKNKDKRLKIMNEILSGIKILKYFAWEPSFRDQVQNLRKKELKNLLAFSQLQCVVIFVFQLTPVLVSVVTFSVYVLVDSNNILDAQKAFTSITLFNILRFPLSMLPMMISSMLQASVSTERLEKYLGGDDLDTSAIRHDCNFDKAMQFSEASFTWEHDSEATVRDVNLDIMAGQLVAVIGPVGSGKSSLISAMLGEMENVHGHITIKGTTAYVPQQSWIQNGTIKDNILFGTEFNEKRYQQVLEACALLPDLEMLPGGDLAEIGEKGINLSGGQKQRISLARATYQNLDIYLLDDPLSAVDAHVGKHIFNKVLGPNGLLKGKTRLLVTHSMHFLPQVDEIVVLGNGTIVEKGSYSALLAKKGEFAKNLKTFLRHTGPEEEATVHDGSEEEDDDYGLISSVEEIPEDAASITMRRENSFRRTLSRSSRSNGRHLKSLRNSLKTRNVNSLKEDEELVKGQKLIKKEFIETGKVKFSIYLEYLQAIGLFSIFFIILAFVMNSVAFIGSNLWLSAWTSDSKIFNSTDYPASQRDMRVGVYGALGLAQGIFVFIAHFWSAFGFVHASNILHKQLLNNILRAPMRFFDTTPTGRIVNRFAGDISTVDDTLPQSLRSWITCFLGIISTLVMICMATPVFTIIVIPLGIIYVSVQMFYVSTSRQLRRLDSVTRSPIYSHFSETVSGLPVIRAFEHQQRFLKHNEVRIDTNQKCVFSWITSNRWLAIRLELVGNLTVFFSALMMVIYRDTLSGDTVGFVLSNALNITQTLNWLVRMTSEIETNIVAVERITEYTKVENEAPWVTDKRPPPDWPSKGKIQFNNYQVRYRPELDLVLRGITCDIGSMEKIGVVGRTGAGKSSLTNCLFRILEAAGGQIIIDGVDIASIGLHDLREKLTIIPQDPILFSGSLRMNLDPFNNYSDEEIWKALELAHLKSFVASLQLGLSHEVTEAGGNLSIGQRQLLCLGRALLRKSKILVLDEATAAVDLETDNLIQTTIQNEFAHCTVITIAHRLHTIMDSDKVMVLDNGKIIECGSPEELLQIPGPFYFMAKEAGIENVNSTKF", "details": "in vitro, cited from earlier work"}, "OATP1B3": {"target": "T3, OATP1B3 (Homo sapiens, UniProt Q9NPD5)", "T3 sequence (Q9NPD5 1-702)": "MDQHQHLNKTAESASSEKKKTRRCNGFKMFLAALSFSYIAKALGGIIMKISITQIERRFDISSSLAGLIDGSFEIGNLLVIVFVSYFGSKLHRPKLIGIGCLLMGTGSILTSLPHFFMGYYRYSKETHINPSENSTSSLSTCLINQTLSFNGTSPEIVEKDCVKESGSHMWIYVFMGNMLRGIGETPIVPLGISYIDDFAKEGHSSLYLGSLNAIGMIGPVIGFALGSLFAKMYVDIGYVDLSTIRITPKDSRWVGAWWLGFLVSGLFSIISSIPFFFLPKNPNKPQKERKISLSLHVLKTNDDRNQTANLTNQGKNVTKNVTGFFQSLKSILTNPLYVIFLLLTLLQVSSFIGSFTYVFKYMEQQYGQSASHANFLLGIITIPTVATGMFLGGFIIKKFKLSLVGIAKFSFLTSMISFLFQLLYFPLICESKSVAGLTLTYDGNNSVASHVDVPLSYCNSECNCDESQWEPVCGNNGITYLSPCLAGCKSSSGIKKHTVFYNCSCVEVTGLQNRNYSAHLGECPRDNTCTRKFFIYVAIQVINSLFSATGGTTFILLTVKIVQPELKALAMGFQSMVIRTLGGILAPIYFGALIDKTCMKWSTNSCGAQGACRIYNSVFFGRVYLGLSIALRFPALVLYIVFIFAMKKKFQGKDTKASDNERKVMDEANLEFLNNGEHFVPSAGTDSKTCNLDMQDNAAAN", "details": "in vitro; cited from earlier work"}, "NTCP": {"target": "T4, NTCP (Homo sapiens, UniProt Q14973)", "T4 sequence (Q14973 1-349)": "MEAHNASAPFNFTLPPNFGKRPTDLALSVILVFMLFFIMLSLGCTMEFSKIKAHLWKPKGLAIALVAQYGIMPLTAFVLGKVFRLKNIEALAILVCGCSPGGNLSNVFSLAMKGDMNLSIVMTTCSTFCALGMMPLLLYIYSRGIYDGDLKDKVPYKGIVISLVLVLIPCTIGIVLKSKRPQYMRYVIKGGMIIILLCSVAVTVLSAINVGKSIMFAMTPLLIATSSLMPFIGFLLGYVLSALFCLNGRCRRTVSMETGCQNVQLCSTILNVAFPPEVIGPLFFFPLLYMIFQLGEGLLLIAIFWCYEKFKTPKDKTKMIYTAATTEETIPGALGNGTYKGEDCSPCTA", "details": "in vitro; read-out: other OATPs NTCP inhibition IC50; cited from earlier work"}, "CYP1A2": {"tested_on": "CYP1A2", "experiment": "CYP1A2 induction", "format": "in vitro ADME", "details": "up to 10 μM"}}, "data": [{"smiles": "COC(=O)N[C@H](C(=O)N1[C@H](c2nc3cc(-c4cc5ccc4CCc4ccc(c(-c6ccc7[nH]c([C@@H]8C[C@@H]9CCCC[C@@H]9N8C(=O)[C@@H](NC(=O)OC)C(C)C)nc7c6)c4)CC5)ccc3[nH]2)C[C@@H]2CCCC[C@@H]21)C(C)C", "note": "[ODV, Odalasvir]", "values": [{"measurement": "effect on CYP2C8", "setting": "CYP2C8", "value": "limited effect"}, {"measurement": "BCRP inhibition (in words)", "setting": "BCRP", "value": "no inhibition"}, {"measurement": "BSEP inhibition (in words)", "setting": "BSEP", "value": "no inhibition"}, {"measurement": "MRP2 inhibition (in words)", "setting": "MRP2", "value": "no inhibition"}, {"measurement": "OATP1B3 inhibition (in words)", "setting": "OATP1B3", "value": "no inhibition"}]}, {"smiles": "COc1ccc2c(O[C@@H]3C[C@H]4C(=O)N[C@]5(C(=O)NS(=O)(=O)C6CC6)C[C@H]5/C=C\\CCCCN(C)C(=O)[C@@H]4C3)cc(-c3nc(C(C)C)cs3)nc2c1C", "note": "[SMV, Simeprevir, reference compound]", "values": [{"measurement": "BSEP inhibition (in words)", "setting": "BSEP", "value": "strong/moderate"}, {"measurement": "IC50", "setting": "BSEP; read-out: BSEP inhibition IC50", "value": 1.7, "unit": "µM"}, {"measurement": "MRP2 inhibition (in words)", "setting": "MRP2", "value": "strong/moderate"}, {"measurement": "IC50", "setting": "MRP2; read-out: MRP2 inhibition IC50", "value": "6 to 19", "unit": "µM"}, {"measurement": "IC50", "setting": "NTCP", "value": 2.2, "unit": "µM"}, {"measurement": "induction of CYP1A2", "setting": "CYP1A2", "value": "no induction"}]}, {"smiles": "CC(C)OC(=O)[C@H](C)N[P@](=O)(OC[C@@]1(F)O[C@@H](n2ccc(=O)[nH]c2=O)[C@](C)(O)[C@@H]1O)Oc1ccccc1", "note": "[Compound (III), isopropyl ((S)-(((2S,3S,4R,5R)-5-(2,4-dioxo-3,4-dihydropyrimidin-1 (2H)-yl)-2-fluoro-3,4-dihydroxy-4-methyltetrahydrofuran-2-yl)methoxy)(phenoxy)phosphoryl)-L-alaninate]", "values": [{"measurement": "BCRP inhibition (in words)", "setting": "BCRP", "value": "no in vitro inhibition"}, {"measurement": "OATP1B3 inhibition (in words)", "setting": "OATP1B3", "value": "no in vitro inhibition"}]}]}
